Results: US20200399238A1, “THERAPEUTIC AURONES” (MIDDLE TENNESSEE STATE UNIVERSITY, priority 2016, published 2020)
Read-outs that look alike come from different tables or passages of the source.

Columns and labels:
[1] = test system: Leishmania amazonensis promastigotes expressing beta-lactamase; test: microbe, parasite or virus in culture; format: cell-based
Experimental: Leishmania amazonensis promastigotes expressing beta-lactamase (Buckner et al., Am. J. Trop. Med. Hyg. 72 (2005) 600-605. doi:72/5/600 [pii]) were cultured in RPMI supplemented with 10% fetal calf serum and 1% pen-strep-glut solution (Sigma) at 27° C. Stationary phase promastigotes were adjusted in fresh media, treated with compounds, and incubated at 37° C. At 24 hours, 100 uL of cultures was added to 50 uL of the CellTiter Glo® solution. Luminescence readings were taken with a spectrophotometer and used to calculate inhibition.

[2] = test system: Trypanosoma cruzi Tulahuen cells expressing beta-galactosidase; test: T. cruzi intracellular assay (beta-galactosidase, L6 host cells)
[3] = test system: Trypanosoma brucei brucei 427 cells; test: T. brucei culture and assay (PrestoBlue); format: cell-based
[4] = test system: rat skeletal muscle cell line, L6; test: cells; format: cell-based
Experimental: Cells were maintained in high glucose DMEM obtained from HyClone Laboratories (Logan, Utah) and supplemented with FCS and P/S at the same concentrations used for parasite culture. Cells were passaged every 3-4 days and maintained in a 37° C. humidified incubator in an atmosphere of 5% CO2. For assays. cells were detached, counted using a hemocytometer, and adjusted using fresh media to deliver 5×10^3 cells per well (90 μL) in black walled, flat clear bottom 96-well microtiter plates. After 3 h incubation for attachment, compounds diluted in culture medium were added (10 μL) to triplicate wells. Positive controls (cells treated with podophyllotoxin (Sigma, St. Louis, Mo.)), negative controls (untreated cells), solvent controls (DMSO) and media blanks were included on each plate. Following incubation for 71.5 h, 11 μL of PrestoBlue was added into each well.

[5] = Leishmania amazonensis, read-out: IC50 L. amaz.
[6] = Trypanosoma cruzi, TULAHUEN, read-out: IC50 T. cruzi, Table 1, intracellular assay, mean of 2(+) trials (^c one trial)
[7] = Trypanosoma cruzi, TULAHUEN, read-out: IC50 T. cruzi, Table 2, intracellular assay, mean of 2(+) independent trials
[8] = Trypanosoma cruzi, TULAHUEN, read-out: IC50 TC-I, Table 3B, weighted means of two or more independent trials
[9] = Trypanosoma brucei, Table 1, mean of 2(+) independent trials, read-out: IC50 T. brucei
[10] = Trypanosoma brucei, read-out: T. brucei IC50 dose
[11] = Rattus norvegicus, Table 1, read-out: IC50 Toxicity (L6)
[12] = Rattus norvegicus, Table 3B, weighted means of two or more independent trials, read-out: IC50 L6
[13] = Table 2, L6 IC50 / L. amazonensis IC50
[14] = Table 2, mean of 2(+) independent trials, read-out: IC50 T. brucei
[15] = Table 2, L6 mammalian cells, read-out: IC50 Toxicity (L6)
[16] = Table 1, intracellular T. cruzi IC50
[17] = Table 3A, estimated from highest L6 dose tested where no L6 IC50
[18] = Trypanosoma cruzi, TULAHUEN, read-out: IC50 TC-I, Table 3A, weighted means of two or more independent trials
[19] = Rattus norvegicus, Table 3A, weighted means of two or more independent trials, read-out: IC50 L6
[20] = Table 2, L6 IC50 / T. cruzi IC50 (intracellular assay)
[21] = Table 2, L6 IC50 / T. brucei IC50
[22] = Table 3C, estimated from highest L6 dose tested where L6 IC50 not reached

Row | SMILES | IC50 [1, 5] [µM] | IC50 [2, 6] [µM] | IC50 [2, 7] [µM] | IC50 [3, 9] [µM] | IC50 [4, 11] [µM] | Selectivity L6/La ([1]; Table 1) | Selectivity L6/La [1, 13] | IC50 [4, 15] [µM] | Selectivity L6/Tc [2, 16] | Selectivity L6/Tc [2, 20] | Selectivity L6/Tb ([3]; Table 1) | Selectivity L6/Tb [3, 21] | other results
1 | O=C1/C(=C/c2ccco2)Oc2ccccc21 [Aurone 2023] | < 1 | 6.97 | 6.97 | > 50 | > 100 | – | – | – | – | – | – | – | IC50 [2, 8]: 6.97 µM; IC50 ([2]; Trypanosoma cruzi, TULAHUEN, read-out: T. cruzi IC50 dose): < 10 µM; IC50 ([3]; Trypanosoma brucei, read-out: IC50 TB): > 50 µM; IC50 [3, 10]: > 50 µM; IC50 [4, 12]: > 100 µM
2 | O=C1/C(=C/c2ncc[nH]2)Oc2ccccc21 [Aurone 2026, (Z)-2-((1H-imidazol-2-yl)methylene)benzofuran-3(2H)-one] | < 1 | 20.9 | 20.9 | 16.1 | > 100 | – | – | – | – | – | – | – | IC50 [2, 8]: 20.9 µM; selectivity for T. brucei (L6/Tb) [3]: > 6.22; IC50 [3, 10]: 16.1 µM; IC50 [4, 12]: > 100 µM
3 | O=C1/C(=C/c2ccc(Br)cc2)Oc2cc(O)ccc21 [Aurone 2905, (Z)-2-(4-bromobenzylidene)-6-hydroxybenzofuran-3(2H)-one] | 39 | > 50 | – | > 50 | > 100 | – | – | – | – | – | – | – | –
4 | O=C1/C(=C/c2ccc[nH]2)Oc2cc(O)ccc21 [Aurone 2906, (Z)-2-((1H-pyrrol-2-yl)methylene)-6-hydroxybenzofuran-3(2H)-one] | 19.9 | > 50 | – | 34.6 | > 100 | – | – | – | – | – | – | – | –
5 | O=C1/C(=C/c2ccc(C(F)(F)F)cc2)Oc2cc(O)ccc21 [Aurone 2909, (Z)-6-hydroxy-2-(4-(trifluoromethyl)benzylidene)benzofuran-3(2H)-one] | 3.97 | > 50 | > 50 | > 50 | > 100 | >25.19 | >25.19 | > 100 | – | – | – | – | IC50 [3, 14]: > 50 µM
6 | COc1ccc(/C=C2\Oc3cc(O)ccc3C2=O)cc1O [Aurone 2911, (Z)-6-hydroxy-2-(3-hydroxy-4-methoxybenzylidene)benzofuran-3(2H)-one] | 6.51 | > 50 | > 50 | > 50 | 52.6 | – | – | – | – | – | – | – | –
7 | COc1ccc(/C=C2\Oc3cc(O)ccc3C2=O)c(OC)c1OC [Aurone 2912, (Z)-6-hydroxy-2-(2,3,4-trimethoxybenzylidene)benzofuran-3(2H)-one] | 25.7 | > 50 | – | > 50 | > 100 | – | – | – | – | – | – | – | –
8 | O=C1/C(=C/[c-]2cccc2)Oc2ccccc21.[Fe+2].c1cc[cH-]c1 [Aurone 3001] | – | – | – | – | – | – | >100 | > 100 | – | – | – | – | IC50 ([1]; Table 1, mean of 2(+) trials, ^c value from one trial, read-out: IC50 L. amaz.): < 1 µM; IC50 ([1]; Table 2, mean of 2(+) independent trials, read-out: IC50 L. amaz.): < 1 µM; IC50 ([2]; read-out: IC50 T. cruzi, Table 1, intracellular assay, mean of 2(+) trials (^c one trial)): > 50 µM; IC50 ([2]; read-out: IC50 T. cruzi, Table 2, intracellular assay, mean of 2(+) independent trials): > 50 µM; IC50 ([2]; read-out: IC50 TC-I, Table 3C, intracellular T. cruzi, weighted means of two or more independent trials): > 50 µM; IC50 ([3]; Table 1, mean of 2(+) independent trials, read-out: IC50 T. brucei): > 50 µM; IC50 [3, 14]: > 50 µM; IC50 ([3]; Table 3C, weighted means of two or more independent trials, read-out: IC50 TB): > 50 µM; IC50 ([4]; Table 1, read-out: IC50 Toxicity (L6)): > 100 µM; IC50 ([4]; Table 3C, weighted means of two or more independent trials, read-out: IC50 L6): > 100 µM
9 | N#Cc1ccccc1/C=C1\Oc2ccccc2C1=O [Aurone 3007, (Z)-2-((3-oxobenzofuran-2(3H)-ylidene)methyl)benzonitrile] | 17.6 | 46.6 | – | > 50 | > 100 | >5.69 | – | – | >2.14 | – | – | – | Selectivity L6/TC-I [2, 17]: >2.14; IC50 [2, 18]: 46.6 µM; IC50 [4, 19]: > 100 µM
10 | COc1ccc(/C=C2\Oc3ccccc3C2=O)cc1 [Aurone 6601, (Z)-2-(4-methoxybenzylidene)benzofuran-3(2H)-one] | 3.3 | 10.8 | 10.8 | 40.3 | > 100 | >30.30 | >30.30 | > 100 | >9.28 | >9.28 | >2.48 | >2.48 | Selectivity L6/TC-I [2, 17]: >9.28; IC50 [2, 18]: 10.8 µM; Selectivity L6/Tb [3, 17]: >2.48; IC50 [4, 19]: > 100 µM
11 | O=C1/C(=C/c2ccccc2)Oc2ccccc21 [Aurone 6615, (Z)-2-benzylidenebenzofuran-3(2H)-one] | 4.13 | 15.8 | 15.8 | 40.1 | 329 | 79.77 | – | – | 20.88 | 20.88 | 8.22 | 8.22 | Selectivity L6/TC-I [2, 17]: 20.88; IC50 [2, 18]: 15.8 µM; Selectivity L6/Tb [3, 17]: 8.22; IC50 [4, 19]: 329 µM
12 | O=C1/C(=C/c2ccc(/C=C3\Oc4ccccc4C3=O)cc2)Oc2ccccc21 [Aurone 6617, (2Z,2′Z)-2,2′-(1,4-phenylenebis(methanylylidene))bis(benzofuran-3(2H)-one)] | 3.62 | 39.1 | 39.1 | 35.4 | > 400 | >110.50 | >110.50 | > 400 | >10.22 | >10.22 | >11.31 | >11.31 | Selectivity L6/TC-I [2, 22]: >10.22; IC50 ([2]; Trypanosoma cruzi, TULAHUEN, read-out: IC50 TC-I, Table 3C, intracellular T. cruzi, weighted means of two or more independent trials): 39.1 µM; Selectivity L6/Tb [3, 22]: >11.31; IC50 ([4]; Rattus norvegicus, Table 3C, weighted means of two or more independent trials, read-out: IC50 L6): > 400 µM
13 | COc1ccc(/C=C2\Oc3cc(O)ccc3C2=O)cc1 [Aurone 6620, (Z)-6-hydroxy-2-(4-methoxybenzylidene)benzofuran-3(2H)-one] | < 1 | 35.1 | 35.1 | < 1 | > 100 | >100 | >100 | > 100 | >2.85 | >2.85 | >100 | >100 | IC50 ([1]; Leishmania amazonensis, read-out: IC50 L. amaz. (footnote c: value obtained from one trial)): < 1 µM; IC50 [3, 14]: < 1 µM
